Assay results from patent US20110112184A1, “COMPOUNDS WITH GLYCIDIC STRUCTURE ACTIVE IN THE THERAPY OF SYSTEMIC AND LOCAL INFLAMMATION” (priority 2008, published 2011).

Columns and labels:
[1] = Stability of compound 4 towards pH variations by 1H-NMR; type: physicochemical; conditions: D2O, room temperature, spectra at 10 min, 4.5 h and 24 h
Description: Stability of compound 4 towards pH variations is evaluated through ^1H-NMR analysis. Two samples are prepared, one in acidic conditions and one in basic conditions; the first is prepared by dissolving 2.3 mg in 550 μl of D2O and adjusting to pH 1.2 through DCl addition, while the second is prepared by dissolving 3 mg of compound 4 in 550 μl of D2O and adjusting to pH 12.5 through NaOD addition. The two samples are kept at room temperature and ^1H-NMR spectra thereof are recorded at time 10 min, 4.5 h and 24 h.
FIG. 1. ^1H-NMR spectra of compound 4 at pH 12.5 and at pH 1.2.

[2] = test system: HT29 cells; test: LPS-induced IL-8 production by HT29 intestinal epithelial cells (ELISA); type: cell-based, human; conditions: compounds 50 mg/L to 5 μg/L for 18 h, then LPS (Salmonella enterica abortus equi) 1 μg/ml 6 h
Description: FIG. 2A. LPS-induced IL-8 production by HT29 cells in the absence or presence of the indicated concentrations of compound (c) 4, 5, 6, 7, 4′, 14.
(§1) The effect of the compounds on the release of IL-8 or KC was tested upon stimulation of intestinal epithelial cells (IEC) with LPS from Salmonella enterica abortus equi. The human IEC line HT29 was used for these experiments. Cells were cultured for 18 h in medium alone or in medium additioned with different concentrations of compounds 4, 5, 6, 7, 4′ and 14 (from 50 mg/L to 5 μg/L). Then, cells were stimulated for 6 h with LPS (1 μg/ml). […] Similar experiments were performed on a human pneumocyte type II cell line (A549) using compound 4 and LPS from Pseudomonas aeruginosa.

[3] = test system: A549 human pneumocytes; test: LPS-induced IL-8 production by A549 human pneumocytes; type: cell-based; conditions: LPS from Pseudomonas aeruginosa 100 μg/ml, compound 4 5 μg/L
Description: FIG. 2B. LPS (100 μg/ml)-induced IL-8 production by A549 human pneumocytes in the absence or presence of compound (Comp) 4 (5 μg/L).
as §1

[4] = test system: LPS/GalN-induced shock in FVB mice; test: LPS/galactosamine-induced shock in mice; type: in vivo; conditions: LPS 5 μg/mouse + GalN 40 mg/mouse i.p., compound 4 25 μg/kg (0.5 μg/mouse) p.o.
Description: FIG. 4. Protection afforded by comp 4 in LPS-induced shock in mice. Untr=untreated; LPSGalN=Mice treated with LPS/GalN alone; LPSGalN Comp 4=Mice treated with LPS/GalN+Comp 4=Mice treated with Comp 4 alone.
Compound 4 was tested in LPS/galactosamine (GalN)-induced shock in mice. LPS shock was induced in 2-months old FVB mice through intraperitoneal (i.p). injection of 5 μg LPS/mouse (LPS from Salmonella enterica abortus equi) and 40 mg/mouse GalN (LPS/GalN).

[5] = test system: DSS-treated FVB mice; test: Acute colitis (acute Crohn-like disease) induced by DSS 2% in mice; type: in vivo; conditions: acute model
Description: FIG. 5. TNF-α levels in mice treated with DSS alone or DSS+comp 4. Untr=Untreated; DSS=Mice treated with DSS alone; DSS comp 4=Mice treated with DSS and comp 4;=Mice treated comp 4 alone.
In mice induced for acute Crohn's disease, modifications of epithelial permeability of the intestine were determined by measuring intestinal transmembrane resistance using the Ussing chamber. For this purpose, 2-months old FVB mice were administered dextran sulfate sodium (DSS) 2% in the drinking water for 7 days (Wirtz et al, 2007). […] Eventually, the serum levels of the inflammatory cytokine TNF-α were measured in mice treated with DSS alone or with DSS+4.

[6] = test system: DSS-treated mice; test: Chronic Crohn-like disease induced by 4 cycles of DSS 2% in mice; type: in vivo; conditions: chronic model
Source text: FIG. 6. Colon length in untreated mice or mice treated with DSS+comp 4. Untr=Untreated; DSS=Mice treated with DSS alone; DSS comp 4=Mice treated with DSS and comp 4;=Mice treated comp 4 alone.
FIG. 7. TNF-α content in the protein extract of the colon of untreated mice or mice treated with DSS+comp 4. Untr=Protein extract from colon of untreated mice; DSS=Protein extract from colon of mice treated with DSS alone; DSS comp 4=Protein extract from colon of mice treated with DSS+comp 4;=Protein extract from colon of mice treated with comp 4 alone.
Chronic Crohn-like disease was induced in mice by administration of DSS 2% for 4 cycles, with each cycle consisting in exposition to DSS 2% for 7 days, followed by 14 days of regular water. In mice that were administered also compound 4, last exposition of DSS was followed by p.o. administration of compound 4 at 25 μg/kg, 4 times/week for 3 weeks.
One hallmark of the chronic Crohn's disease model is the shortening of the colon.
Another parameter that was measured in this setting was the TNF-α content in the protein extract of the colon of mice. DSS 2% alone led to a dramatic increase of the TNF-α levels in the protein extract, while co-treatment with compound 4 led to normalization of these levels.

[7] = test system: Caco-2 enterocytes; test: Doxorubicin-induced injury of Caco-2 enterocytes (ROS in culture medium); type: cell-based; conditions: Caco-2 monolayer, 3 μM doxorubicin + compound 4
Description: FIG. 10. Measurement of ROS in the cell culture medium of untreated enterocytes or enterocytes treated with doxorubicin+compound 4. Ctrl=Untreated (control) cells; Doxo=Cells treated with doxorubicin alone; Doxo comp 4=Cells treated with doxorubicin and compound 4.
Compound 4 has shown protective efficacy also in an in vitro model of chemotherapy-induced injury of enterocytes. In this model, a monolayer of Caco-2 enterocytes was treated with 3 μM doxorubicin alone or doxorubicin and 4.

[8] = test system: mice treated with doxorubicin; test: Acute doxorubicin-induced enterocyte injury in mice; type: in vivo; conditions: doxorubicin 27 mg/kg i.p. + compound 4 25 μg/kg orally; 72 h
Description: FIG. 11. Serum levels of KC in untreated mice or mice submitted to acute treatment with doxorubicin or chronic treatment with doxorubicin and 5-fluorouracil. Untr=Untreated; Doxo 27 mg=Mice submitted to acute treatment with doxorubicin; Doxo 27 mg comp 4=Mice submitted to acute treatment with doxorubicin and concomitant p.o. administration of comp 4; Doxo cron=Mice submitted to chronic treatment with doxorubicin and 5-fluoruracil; Doxo cron comp 4=Mice submitted to chronic treatment with doxorubicin and 5-fluoruracil and concomitant p.o. administration of compound 4.
FIG. 12. Histology of the epithelium of the small intestine in mice after acute treatment with doxorubicin (DOXO) or acute treatment with doxorubicin and concomitant administration of compound 4 (comp 4+DOXO).
For the first model, doxorubicin was administered to mice by intraperitoneal injection (27 mg/kg). Some of the mice were administered at the same time compound 4 (25 μg/kg orally). Recovery of the blood for the determination of circulating KC levels and subsequent sacrifice of the animals were performed at 72 h after treatment.

SMILES: CN(C)c1cccc2c(S(=O)(=O)NCC[C@H]3O[C@H](CO)[C@@H](O)[C@H](O)[C@H]3O)cccc12 [Compound 4, 5-(Dimethylamino)-N-[2′-(α-D-glucopyranosyl)ethyl]-1-naphthalenesulphonamide]
- Stability towards pH (degradation by 1H-NMR) ([1]; pH 1.2 (DCl)): no degradation
- Stability towards pH (degradation by 1H-NMR) ([1]; pH 12.5 (NaOD)): no degradation
- production of IL-8 induced by LPS [2]: significantly inhibited
- LPS-induced IL-8 production [3]: significantly inhibited
- Protection against LPS/GalN-induced shock [4]: full protection
- Serum levels of TNF-α (increase induced by DSS 2%) ([5]; DSS 2% + compound 4): strongly inhibited
- Intestinal transmembrane resistance ([5]; DSS 2% in drinking water 7 days + compound 4, Ussing chamber): 49 Ω × cm^2
- Intestinal transmembrane resistance ([6]; 4 cycles DSS 2% + compound 4 25 μg/kg p.o. 4 times/week for 3 weeks): 47 Ω × cm^2
- TNF-α content in the protein extract of the colon ([6]; DSS 2% + compound 4): normalization
- mean length of the colon ([6]; DSS 2% + compound 4): 11.55 cm
- reactive oxygen species (ROS) in the cell culture medium [7]: complete inhibition
- Histology of the epithelium of the small intestine [8]: normal morphology
- circulating KC levels [8]: strongly reduced
